Experiment [1] relates to HepG2 cells. The experiment in a line: Isotopomer spectral analysis (ISA) of flux of 13C-acetate to lathosterol and cholesterol. It counts as cell-based, Human. The following applies: 10 µM, 12 h, 1 mM 1-13C-acetate. The procedure: (§1) Human hepatoma HepG2 cells were cultured to confluency in 60-mm dishes in phenol-red-free Dulbecco's modified Eagle's medium (DMEM) containing Pen-Strep (100 µg/ml), glucose (10 mM), sodium bicarbonate (45 mM) and glutamine (4 mM) supplemented with 10% fetal calf serum as described previously (24). At the beginning of the experiment the medium was changed to serum-free DMEM supplemented with 10% lipid-free "controlled process serum replacement" (CPSR-1). Compounds were added from ethanolic stock solutions to produce final ethanol concentrations of 0.1-0.3% v/v. Controls received the same amount of ethanol. Aminotriazole was added in an aqueous solution. Slices of rat testis (25 µm; 25-50 mg wet weight) were incubated under the same conditions in a shaking water bath (37°C). For isotopomer spectral analysis (ISA) of lathosterol, 1-^13C-acetate was added in an aqueous solution to a final concentration of 1 mM.
(§2) Analyses were performed on a Hewlett-Packard GC/MS system (5890 series II GC interfaced to a 5971 mass selective detector) equipped with a DB-XLB column (30 m x 0.25 mm i.d. x 0.25 µm film; J&W). Gas-chromatography was done in the splitless mode with temperature programming as follows: 150°C for 1 min, followed by 20°C/min up to 260°C and 10°C/min up to 280°C (hold for 15 min). Mass spectral data were collected either in the full-scan mode (m/z 50-550) or by selective ion monitoring (SIM). For SIM analyses the electron multiplier voltage was raised by 300 V after the elution of lathosterol to increase the sensitivity of detection for lanosterol, dihydrolanosterol, methylsterols, dimethylsterols and plant sterols. The internal standard epicoprostanol was monitored at m/z 370. In unlabeled experiments, cholesterol precursors and plant sterols were monitored by the following ions: desmosterol (m/z 456; 441 and 351); Δ8-cholestenol (m/z 458); lathosterol (m/z 458); monounsaturated methylsterols (m/z 472); diunsaturated methylsterols (m/z 470); monounsaturated dimethylsterols (m/z 486); diunsaturated dimethylsterols (m/z 484); triunsaturated dimethylsterols (m/z 482); lanosterol (m/z 498 and 393) and dihydrolanosterol (m/z 500 and 395). Peak integration was performed manually, and sterols were quantified from SIM analyses against the internal standard. Unless stated otherwise, MAS amounts are given as a percentage of the control. When 1-^13C-acetate was used in the culture medium for ISA, up to 10 ions (M+0- M+10) were monitored for the TMS derivatives of lathosterol (m/z 458-468), T-MAS (m/z 484-494) and FF-MAS (m/z 482-492).
ISA was carried out as described previously (25) by incubating cells with 1-13C-acetate. The isotopomer distribution in sterols synthesized from 1-^13C-acetate provided the fractional synthesis rate g(t) of the product and the enrichment D of the labeled precursor pool. These parameters were calculated by nonlinear regression analysis as described previously (25,26). Because here we used the molecular ions containing the TMS group for the ISA calculations, the ISA program was modified to correct for the additional C, H and Si atoms from the derivatization reagent. Statistical differences were assessed by Student's t-test and considered significant for P<0.05.

For a further experiment, the target named is T1, Δ24-reductase (Homo sapiens, UniProt Q15392).
T1 construct: endogenous in cells; host or cells: HepG2
T1 sequence (Q15392 23-516): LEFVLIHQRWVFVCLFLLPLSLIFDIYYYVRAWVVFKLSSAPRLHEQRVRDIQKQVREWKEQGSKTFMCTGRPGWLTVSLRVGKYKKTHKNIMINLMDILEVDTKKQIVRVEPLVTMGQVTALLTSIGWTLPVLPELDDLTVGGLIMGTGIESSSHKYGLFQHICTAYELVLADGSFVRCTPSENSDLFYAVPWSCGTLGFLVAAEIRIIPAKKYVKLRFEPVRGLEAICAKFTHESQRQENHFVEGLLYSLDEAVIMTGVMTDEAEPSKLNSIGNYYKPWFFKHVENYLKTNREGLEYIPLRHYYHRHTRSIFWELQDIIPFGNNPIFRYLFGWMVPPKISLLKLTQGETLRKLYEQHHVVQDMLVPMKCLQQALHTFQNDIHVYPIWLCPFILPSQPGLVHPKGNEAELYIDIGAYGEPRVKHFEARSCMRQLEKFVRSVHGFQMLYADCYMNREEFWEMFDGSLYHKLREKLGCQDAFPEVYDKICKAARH
The experiment in a line: Δ24-reductase assay (conversion of lanosterol to dihydrolanosterol in the presence of miconazole). It counts as cell-based. The settings on record: HepG2 cells; conversion of lanosterol to dihydrolanosterol with added miconazole. As to the method: HepG2 cells were incubated for 12 h with 10 µM simvastatin (a kind gift from M. Stapff (MSD, Germany)) to deplete cholesterol precursors. Thereafter, the medium was changed to one containing 10 µM simvastatin, 10 µM miconazole (an inhibitor of 14α-demethylation) and 6 µg/dish lanosterol. After 12 h incubation, neutral sterols were extracted as described above, and the samples were monitored for lanosterol (m/z 498 (M^+) and m/z 393 (M-TMSOH-CH3)) and dihydrolanosterol (m/z 500 (M^+) and m/z 395 (M-TMSOH-CH3)) by GC/MS. Dihydrolanosterol was quantified by comparing the ratio of SIM abundances at m/z 395 and 370 (epicoprostanol) against a standard curve constructed from SIM results on mixtures of authentic dihydrolanosterol and epicoprostanol. Desmosterol was quantified analogously by SIM.

In experiment [2] the test system is HepG2 cells. Briefly: Accumulation of cholesterol precursors / C29-sterols (MAS) in HepG2 cells, GC/MS (SIM). It counts as cell-based, Human. The settings on record: HepG2 cells; for Dienol (m/z 486) / Enol T-MAS (m/z 484) / Trienol FF-MAS (m/z 482): ± SD; for suppression of the Δ24 reduction step (accumulation of desmosterol): absence of miconazole, 10 µM potent inhibitors or 1 µM tamoxifen for 12 h; for Increases in FF-MAS / Increases in T-MAS: 1 µM, refers to Table 1. As to the method: as §1
(§3) Cells were washed three times with ice cold PBS (pH 7.4) (once with 2 mg/ml BSA and twice with PBS alone). Epicoprostanol (1 µg in 50 µl of hexane) was added as internal standard to each sample. Sterols were extracted in hexane/isopropanol (3:2 v/v; two times with 4 ml). After drying under nitrogen and alkaline hydrolysis (1 N NaOH in 80% ethanol, 1.5 h at 70°C), the sterols were extracted with cyclohexane (two times with 3 ml). After drying under nitrogen, sterols were converted to their trimethylsilyl (TMS) derivatives by adding 100 µl bis(trimethylsilyl)trifluoracetamide (Pierce)/n-decane (1:1; v/v) and heating for 1 h at 70°C in a conical glass tube. This solution (1-2 µl) was used for gas-chromatography/mass-spectrometry (GC/MS). Rat testes (0.05-0.15 g) were homogenized manually, and lipids were extracted in hexane/isopropanol (3:2 v/v; two times with 4 ml). The extracts were deproteinized with acetone (3 ml) and processed as described above. The observed sterol levels in testis were normalized to correspond to 0.1 g of tissue (wet weight).
Gas-chromatography was done in the splitless mode with temperature programming as follows: 150°C for 1 min, followed by 20°C/min up to 260°C and 10°C/min up to 280°C (hold for 15 min). Mass spectral data were collected either in the full-scan mode (m/z 50-550) or by selective ion monitoring (SIM). For SIM analyses the electron multiplier voltage was raised by 300 V after the elution of lathosterol to increase the sensitivity of detection for lanosterol, dihydrolanosterol, methylsterols, dimethylsterols and plant sterols. The internal standard epicoprostanol was monitored at m/z 370. […] Peak integration was performed manually, and sterols were quantified from SIM analyses against the internal standard. Unless stated otherwise, MAS amounts are given as a percentage of the control.

The next experiment concerns rat testis. The experiment in a line: Levels of C29-sterols in rat testis slices, GC/MS (SIM). It counts as cell-based, Sprague-Dawley rats. The settings on record: 9 h, n=3, ± SD. As to the method:
Unless specified otherwise, potent inhibitors, drugs, chemicals, and cell culture supplies were purchased from Sigma. T-MAS and FF-MAS were synthesized as reported recently (5) and used as reference compounds. 1-^13C-acetate was obtained from Cambridge Isotope Laboratories. Rat testes were obtained from Sprague-Dawley rats (weight <50g).
as §1, §3, §2

Where [3] appears, read: Conc. 1 µM (combinations 1 + 1 µM), 24 h, n=3.
Setting [4] is: Conc. 10 µM (combinations 10 + 10 µM), 12 h, n=2.
Where [5] appears, read: 12-h incubation with 10 µM, n=3 incubations.
The mark [6] stands for this setting: Conc. 10 µM (combination 10 + 10 µM).

The record followed here is patent publication EP1216701A1, “Process to increase the concentration of meiosis-activating sterols (MAS) in the cholesterol synthesis and the use of potent inhibitors in the process” (Schering Aktiengesellschaft, priority 2000, dated 2002).

Turning to `CC(=O)[C@H]1CC[C@H]2[C@@H]3CC=C4C[C@@H](O)CC[C@]4(C)[C@H]3CC[C@]12C` [Pregnenolone], in the experiment with HepG2 cells [1], the “lowering of the total amount of lathosterol” value (from here on “lowering”) is reported as “ca. 50%” and the “reduction of de novo lathosterol synthesis” value is recorded as “more than 60%”. For the same compound, the “order of suppression of Δ24 reduction” value at Δ24-reductase was “pregnenolone > progesterone > 17α-OH-pregnenolone >> 17α-OH-progesterone”. In the experiment on HepG2 cells [2] (setting [3]), the “Dienol (m/z 486)” value is listed as 110 ± 9 % of control, the “Enol T-MAS (m/z 484)” value is reported as 223 ± 11 % of control and the “Trienol FF-MAS (m/z 482)” value is 166 ± 28 % of control. In the experiment with HepG2 cells [2] (setting [4]), the “Dienol (m/z 486)” value was 4 ± 1 % of control, the “Enol T-MAS (m/z 484)” value was 308 ± 40 % of control and the “Trienol FF-MAS (m/z 482)” value is listed as 213 ± 15 % of control. The “suppression of the Δ24 reduction step (accumulation of desmosterol)” value (shortened to “suppression of the Δ24 reduction step”) in the experiment on HepG2 cells [2] is listed as “strongly suppressed”.
Take `CC(=O)[C@H]1CC[C@H]2[C@@H]3CCC4=CC(=O)CC[C@]4(C)[C@H]3CC[C@]12C` [Progesterone]: in the experiment on HepG2 cells [1], the “lowering” value is “ca. 50%” and the “reduction of de novo lathosterol synthesis” value is recorded as “more than 60%”. Also, at Δ24-reductase, the “order of suppression of Δ24 reduction” value was “pregnenolone > progesterone > 17α-OH-pregnenolone >> 17α-OH-progesterone”. Further, in the experiment with HepG2 cells [2], the “Increases in FF-MAS” value worked out at 4 fold, the “Increases in T-MAS” value was found to be 9 fold and the “suppression of the Δ24 reduction step” value is on record as “strongly suppressed”. In the experiment with HepG2 cells [2] (12-h incubation with 10 µM), the “desmosterol as share of the cholesterol content of the cells” value is 2.1%. Moreover, in the experiment with HepG2 cells [2] (setting [5]), the cholesterol is reported as 269 ± 3 µg and the desmosterol is listed as 5.7 ± 0.07 µg. In the experiment with HepG2 cells [2] (setting [3]), the “Dienol (m/z 486)” value was 77 ± 9 % of control and the “Enol T-MAS (m/z 484)” value is listed as 192 ± 41 % of control. In the experiment with HepG2 cells [2] (setting [4]), the “Dienol (m/z 486)” value is listed as 26 ± 3 % of control, the “Enol T-MAS (m/z 484)” value is given as 1000 ± 106 % of control and the “Trienol FF-MAS (m/z 482)” value was 3335 ± 397 % of control. Moreover, in the experiment with rat testis (setting [6]), the “Dienol (m/z 486)” value is recorded as 109 ± 1 % of control, the “Enol T-MAS (m/z 484)” value is 107 ± 1 % of control and the “Trienol FF-MAS (m/z 482)” value was 336 ± 12 % of control. In the experiment on rat testis (Conc. 20 µM), the “Dienol (m/z 486)” value is 103 ± 14 % of control, the “Enol T-MAS (m/z 484)” value was 129 ± 10 % of control and the “Trienol FF-MAS (m/z 482)” value is given as 487 ± 37 % of control.
`CC(=O)[C@@]1(O)CC[C@H]2[C@@H]3CCC4=CC(=O)CC[C@]4(C)[C@H]3CC[C@@]21C` [17α-OH-Progesterone, 17α-Hydroxy-progesterone]: in the experiment on HepG2 cells [1], the “lowering” value is reported as “ca. 50%” and the “reduction of de novo lathosterol synthesis” value is reported as “more than 60%”. For the same compound, the “order of suppression of Δ24 reduction” value at Δ24-reductase is “pregnenolone > progesterone > 17α-OH-pregnenolone >> 17α-OH-progesterone”. Also, in the experiment on HepG2 cells [2], the “Increases in FF-MAS” value is 4 fold, the “Increases in T-MAS” value is on record as 9 fold and the “suppression of the Δ24 reduction step” value was “not”. In the experiment on HepG2 cells [2] (setting [3]), the “Dienol (m/z 486)” value is listed as 246 ± 26 % of control, the “Enol T-MAS (m/z 484)” value was 162 ± 15 % of control and the “Trienol FF-MAS (m/z 482)” value is 120 ± 14 % of control. Further, in the experiment on HepG2 cells [2] (setting [4]), the “Dienol (m/z 486)” value was 2384 ± 236 % of control, the “Enol T-MAS (m/z 484)” value is 2003 ± 201 % of control and the “Trienol FF-MAS (m/z 482)” value was 406 ± 52 % of control. Further, in the experiment with rat testis (setting [6]), the “Dienol (m/z 486)” value is given as 199 ± 19 % of control, the “Enol T-MAS (m/z 484)” value was 201 ± 26 % of control and the “Trienol FF-MAS (m/z 482)” value is recorded as 171 ± 8 % of control. Also, in the experiment on rat testis (Conc. 20 µM), the “Dienol (m/z 486)” value is on record as 223 ± 25 % of control, the “Enol T-MAS (m/z 484)” value is on record as 225 ± 22 % of control and the “Trienol FF-MAS (m/z 482)” value was 240 ± 40 % of control.
